Data taken from publication PMC9977887, “Crocodile defensin (CpoBD13) antifungal activity via pH-dependent phospholipid targeting and membrane disruption” (Nature Communications, 2023).
Where no end group is shown, it is not given here.

Assay: Calcein-encapsulated liposome lysis assay
Type: biochemical
Protocol: Liposomes were prepared using natural chicken egg L-α-phophatidylcholine and L-α-phosphatidic acid dissolved in chloroform (Avanti Polar Lipids), and liposome pulldowns (at pH 7.4) and calcein-encapsulated liposome lysis assays were performed as previously described. For liposome pulldowns performed at pH 5.5, the same protocol was used with minor variations. The desiccated lipid films were resuspended in 20 mM MES pH 7.4 and were washed in the same buffer during the centrifugation process. After the final wash step, the liposome pellets were resuspended in 20 mM MES pH 5.5 and incubated with CpoBD13 or mutants thereof (also prepared in the same acidic buffer).

CpoBD13: saltwater crocodile β-defensin 13, histidine-rich, three disulphide bonds, recombinantly expressed in Pichia pastoris (NGSYYSTLQCRNNHGHCRRLCFHGEQWIGNCNGRHQHCCK; disulfide (positions not given here); also: three disulphide bonds, pairings not given here)
lysis of PC:PA liposomes relative to PC only liposomes (20 µM, 30 min, calcein release): significant increase in the lysis | Lysis (%) (PC liposomes, replicate 1): 54.3884% | Lysis (%) (PC liposomes, replicate 2): 55.3559% | Lysis (%) (PC liposomes, replicate 3): 54.0992% | Lysis (%) (PC:PA liposomes, replicate 1): 67.3935% | Lysis (%) (PC:PA liposomes, replicate 2): 66.6111% | Lysis (%) (PC:PA liposomes, replicate 3): 65.2527% | Lysis (%) (PC:PA, 20 µM, 0 min, replicate 1): 25.7371% | Lysis (%) (PC:PA, 20 µM, 0 min, replicate 2): 19.5617% | Lysis (%) (PC:PA, 20 µM, 0 min, replicate 3): 31.0288% | Lysis (%) (PC:PA, 20 µM, 2 min, replicate 1): 44.3847% | Lysis (%) (PC:PA, 20 µM, 2 min, replicate 2): 47.8762% | Lysis (%) (PC:PA, 20 µM, 2 min, replicate 3): 47.362% | Lysis (%) (PC:PA, 20 µM, 4 min, replicate 1): 50.7757% | Lysis (%) (PC:PA, 20 µM, 4 min, replicate 2): 55.3375% | Lysis (%) (PC:PA, 20 µM, 4 min, replicate 3): 52.3336% | Lysis (%) (PC:PA, 20 µM, 6 min, replicate 1): 56.1428% | Lysis (%) (PC:PA, 20 µM, 6 min, replicate 2): 57.6724% | Lysis (%) (PC:PA, 20 µM, 6 min, replicate 3): 56.2525% | Lysis (%) (PC:PA, 20 µM, 8 min, replicate 1): 57.9433% | Lysis (%) (PC:PA, 20 µM, 8 min, replicate 2): 61.2343% | Lysis (%) (PC:PA, 20 µM, 8 min, replicate 3): 57.4403% | Lysis (%) (PC:PA, 20 µM, 10 min, replicate 1): 60.1091% | Lysis (%) (PC:PA, 20 µM, 10 min, replicate 2): 61.4149% | Lysis (%) (PC:PA, 20 µM, 10 min, replicate 3): 58.1894% | Lysis (%) (PC:PA, 20 µM, 12 min, replicate 1): 61.5771% | Lysis (%) (PC:PA, 20 µM, 12 min, replicate 2): 62.8368% | Lysis (%) (PC:PA, 20 µM, 12 min, replicate 3): 59.7071% | Lysis (%) (PC:PA, 20 µM, 14 min, replicate 1): 62.1444% | Lysis (%) (PC:PA, 20 µM, 14 min, replicate 2): 63.0568% | Lysis (%) (PC:PA, 20 µM, 14 min, replicate 3): 60.7639% | Lysis (%) (PC:PA, 20 µM, 16 min, replicate 1): 64.0158% | Lysis (%) (PC:PA, 20 µM, 16 min, replicate 2): 63.5735% | Lysis (%) (PC:PA, 20 µM, 16 min, replicate 3): 61.3601% | Lysis (%) (PC:PA, 20 µM, 18 min, replicate 1): 65.2175% | Lysis (%) (PC:PA, 20 µM, 18 min, replicate 2): 63.6472% | Lysis (%) (PC:PA, 20 µM, 18 min, replicate 3): 61.6924% | Lysis (%) (PC:PA, 20 µM, 20 min, replicate 1): 64.1335% | Lysis (%) (PC:PA, 20 µM, 20 min, replicate 2): 65.2803% | Lysis (%) (PC:PA, 20 µM, 20 min, replicate 3): 62.4881% | Lysis (%) (PC:PA, 20 µM, 22 min, replicate 1): 64.7756% | Lysis (%) (PC:PA, 20 µM, 22 min, replicate 2): 65.3585% | Lysis (%) (PC:PA, 20 µM, 22 min, replicate 3): 63.4838% | Lysis (%) (PC:PA, 20 µM, 24 min, replicate 1): 65.4459% | Lysis (%) (PC:PA, 20 µM, 24 min, replicate 2): 66.2461% | Lysis (%) (PC:PA, 20 µM, 24 min, replicate 3): 64.0406% | Lysis (%) (PC:PA, 20 µM, 26 min, replicate 1): 65.9416% | Lysis (%) (PC:PA, 20 µM, 26 min, replicate 2): 66.5138% | Lysis (%) (PC:PA, 20 µM, 26 min, replicate 3): 64.3943% | Lysis (%) (PC:PA, 20 µM, 28 min, replicate 1): 66.2501% | Lysis (%) (PC:PA, 20 µM, 28 min, replicate 2): 65.4475% | Lysis (%) (PC:PA, 20 µM, 28 min, replicate 3): 64.7127% | Lysis (%) (PC:PA, 20 µM, 30 min, replicate 1): 67.3935% | Lysis (%) (PC:PA, 20 µM, 30 min, replicate 2): 66.6111% | Lysis (%) (PC:PA, 20 µM, 30 min, replicate 3): 65.2527% | Lysis (%) (PC, 20 µM, 0 min, replicate 1): 15.1234% | Lysis (%) (PC, 20 µM, 0 min, replicate 2): 15.1242% | Lysis (%) (PC, 20 µM, 0 min, replicate 3): 13.8859% | Lysis (%) (PC, 20 µM, 2 min, replicate 1): 39.0447% | Lysis (%) (PC, 20 µM, 2 min, replicate 2): 32.4816% | Lysis (%) (PC, 20 µM, 2 min, replicate 3): 30.5639% | Lysis (%) (PC, 20 µM, 4 min, replicate 1): 45.2997% | Lysis (%) (PC, 20 µM, 4 min, replicate 2): 38.3127% | Lysis (%) (PC, 20 µM, 4 min, replicate 3): 36.68%
